The nature of this data set: gradient 5% acetonitrile 3 min, to 50% in 2 min, to 85% in 15 min, held 3 min, 100 µL/min. To be noted: column: Zorbax Extend-C18 2.1 x 50 mm; eluents: water / acetonitrile, 0.1% formic acid. Put shortly: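 Retention times of pure standards were taken from adduct peaks that were selected by computer and manually inspected. Over 3 months, mixtures of ~100 molecules were run by HPLC–quadrupole time-of-flight mass spectrometry in positive and negative ionization mode. The Zorbax Extend-C18 column (2.1 × 50 mm, 1.8 μm) ran at 100 μL/min in water and acetonitrile, each containing 0.1% formic acid, with 40 μL dead volume and 900 μL dwell volume.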
`CCc1ccccc1NC(=O)c1ncn2c1C(=O)N(C1CC1)C(C)(C(=O)NC1CCCC1)C2` (centres undefined) came in with an RP-LC retention time of 828 s.

In turn, `O=C(NCc1cccs1)c1ccc2ncnc(N3CCCC3)c2c1` gave an RP-LC retention time of 617 s.

As for `Cn1nccc1C(=O)N1CCCCC1c1nncn1Cc1ccccc1` (centres undefined), the RP-LC retention time was 665 s.

Turning to `Cc1ccc(-c2nc3sc(N4CCCCC4)nn3c2NC(=O)c2ccnn2C)cc1`, the RP-LC retention time was 887 s.

Turning to `CCCN(CC1CCOC1)C(=O)Nc1cc(Cl)ccc1C` (centres undefined), the RP-LC retention time was found to be 901 s.

`COc1ccc(C(=O)N2CCCC2c2nc(-c3ccc(OC)cc3)no2)cc1` (centres undefined) yielded an RP-LC retention time of 957 s.

In turn, `Clc1ccc(Nc2c(-c3cccc(Cl)c3)nc3ccc(Cl)cn23)cc1` gave an RP-LC retention time of 1140 s.

`O=C(NCCc1nc(-c2ccc3c(c2)OCO3)n[nH]1)c1cc(F)ccc1Cl` showed an RP-LC retention time of 660 s.

The compound `Cc1ccc(-c2noc(-c3nn(CC(=O)NC4CCC(C)CC4)c4ccccc34)n2)cc1` (centres undefined) returned an RP-LC retention time of 1300 s.

Consider `CCCCN(C)C(=O)Cn1nc2c3cc(-c4cc(C)ccc4C)nn3ccn2c1=O`, for which the RP-LC retention time came out at 973 s.

Turning to `O=C(CCc1c(-c2ccc(F)cc2)nc2ccccn12)NCc1ccc2c(c1)OCO2`, the RP-LC retention time worked out at 655 s.

`COc1ccc(N2CCN(c3cc(SCC(=O)Nc4cc(OC)cc(OC)c4)ncn3)CC2)cc1` yielded an RP-LC retention time of 814 s.

In turn, `Cc1nc(NC(=O)N2CCC[C@H]2C(N)=O)sc1-c1csc(C(C)(C)C)n1` had an RP-LC retention time of 776 s.

With `CCc1ccccc1NC(=O)N1CCc2nc(-c3ccc(Cl)cc3)ncc2C1`, the RP-LC retention time was found to be 1160 s.

`Cc1cc(NC(=O)c2cnccn2)sn1` showed an RP-LC retention time of 606 s.

Turning to `Cc1sc2ncn3c(=O)n(CC(=O)N4CCc5ccccc5C4)nc3c2c1C`, the RP-LC retention time was found to be 894 s.

`CCOC(=O)c1c(N2C(=O)CC(Sc3ccccc3C(=O)O)C2=O)sc(C)c1C` (centres undefined) had an RP-LC retention time of 821 s.

`O=C(c1cn2ccccc2n1)N1CCN(c2ccc(Cl)cc2)CC1` showed an RP-LC retention time of 709 s.

On to `O=C(CNC(=O)c1ccc(C(F)(F)F)cc1)Nc1nc2ccccc2[nH]1`, for which the RP-LC retention time was found to be 688 s.

The compound `Cc1nc(-c2cc3ccccc3nc2N2CCN(C(=O)Cc3ccccc3)CC2)no1` came in with an RP-LC retention time of 934 s.

Turning to `CCOC(=O)c1c(NC(=O)C2CCN(S(=O)(=O)Cc3ccccc3)CC2)sc2c1CCCC2`, the RP-LC retention time worked out at 1340 s.

In the case of `CCCS(=O)(=O)NCCS(=O)(=O)N1CCN(c2cccc(Cl)c2)CC1`, the RP-LC retention time came to 867 s.

`COc1ccc2c(c1)C1(CCN(S(=O)(=O)c3ccc(C)cc3)C1)C(=O)N2` (centres undefined) came in with an RP-LC retention time of 843 s.

On to `CCN1C(=O)c2cccnc2Sc2cc(CNC(=O)Cc3ccc(OC)cc3)ccc21`, for which the RP-LC retention time was 742 s.

The compound `CCCc1nnc(C(=O)Nc2cccc(C(=O)NCCc3c[nH]c4ccc(Cl)cc34)c2)s1` showed an RP-LC retention time of 981 s.

`O=C(NC1CC1)[C@@H]1C[C@H](Oc2ccccc2)CN1C(=O)c1ccco1` came in with an RP-LC retention time of 700 s.

Take `CSc1cccc(NC(=O)Nc2ccccc2C(N)=O)c1`: the RP-LC retention time was found to be 856 s.

For `Cc1noc(/C=C\c2ccc(S(=O)(=O)N3CCN(C)CC3)cc2)c1NC(=O)C1CC1`, the RP-LC retention time turned out to be 617 s.

`Cc1cc(Cl)ccc1OCCCC(=O)NO` showed an RP-LC retention time of 801 s.

`CCOC(=O)Cc1sc(Nc2nc3ccccc3s2)nc1-c1ccccc1` gave an RP-LC retention time of 1170 s.

The compound `Cc1ccc(NC(=O)c2ccco2)c(C(=O)c2ccccc2)c1` had an RP-LC retention time of 995 s.

For `COCCN1CC2(CCCC2)N(Cc2ccc(C(C)C)cc2)CC1=O`, the RP-LC retention time was 690 s.

With `Cc1cccc(Nc2ccc(N3CCN(C(=O)c4cccs4)CC3)nn2)n1`, the RP-LC retention time was found to be 579 s.

For `CC(=O)N1CCN(C(=O)[C@@]23CCCC[C@H]2N(CCC(C)C)C(=O)CC3)CC1`, the RP-LC retention time was 662 s.

`Cc1ccc(C(C)NC(=O)c2ccc3[nH]cc(C(=O)C(=O)N4CCCCCC4)c3c2)c(C)c1` (centres undefined) yielded an RP-LC retention time of 919 s.

In turn, `CCc1csc(-c2ccc(N3CCN(C(=O)c4ccc(F)c(F)c4)CC3)nc2)n1` showed an RP-LC retention time of 955 s.

In turn, `Cc1nc(Nc2ccc(Cl)cn2)sc1C(=O)N1CCN(C(C)C)CC1` registered an RP-LC retention time of 612 s.

For the compound `Cn1cnc(S(=O)(=O)N2CCC(c3noc(-c4ccccc4)n3)C2)c1` (centres undefined), the RP-LC retention time worked out at 748 s.

The compound `COC(=O)c1ncn2c1C(=O)N(c1cc(C)cc(C)c1)C(C)(C(=O)NCc1ccccc1)C2` (centres undefined) registered an RP-LC retention time of 747 s.

On to `CN(CCc1noc(-c2ccc(F)cc2)n1)C(=O)NCc1ccccc1`, for which the RP-LC retention time turned out to be 839 s.

The compound `N[C@@H](CC(=O)N1CCn2c(nnc2C(F)(F)F)C1)Cc1cc(F)c(F)cc1F` showed an RP-LC retention time of 675 s.

Compound `CCc1ccc(C2=C(C)C(N3CCCN(C(=O)C4CCOC4)CC3)=NS2(=O)=O)cc1` (centres undefined) came in with an RP-LC retention time of 749 s.

`CN(CCc1noc(COc2ccccc2F)n1)C(=O)CCc1ccccc1` returned an RP-LC retention time of 931 s.

`CC(=O)N1CCN(C(=O)CN2C(=O)C3CCCCN3c3ccc(S(=O)(=O)N(C)C)cc32)CC1` (centres undefined) yielded an RP-LC retention time of 680 s.

Regarding `O=C1Nc2cc(C(=O)N3CCCCC3)ccc2N2CCCCC12` (centres undefined), the RP-LC retention time is 762 s.

`COc1cc(C(=O)Nc2cccc(-c3cn4cccnc4n3)c2)cc(OC)c1OC` yielded an RP-LC retention time of 642 s.

Take `COC(=O)c1ccc(NC(=O)C2CC(=O)N(CCc3c[nH]c4ccc(F)cc34)C2)cc1` (centres undefined): the RP-LC retention time turned out to be 799 s.

Compound `CC(C)NC(=O)C1CCCN(C(=O)Nc2ccc(NC(=O)Nc3ccccc3F)cc2)C1` (centres undefined) registered an RP-LC retention time of 735 s.

`O=C(NCCc1ccccc1)N1CCN(c2cc(-c3ccncc3)[nH]n2)CC1` came in with an RP-LC retention time of 607 s.

`O=C1CC(c2noc(-c3ccc(F)cc3)n2)CN1c1ccc(Cl)cc1` (centres undefined) came in with an RP-LC retention time of 1070 s.

For the compound `Cc1ccccc1NS(=O)(=O)c1cc(-c2cc(C(F)(F)F)on2)sc1C`, the RP-LC retention time was determined as 1180 s.

`CC(C)CCNC(=O)c1nnc(-c2ccc(S(=O)(=O)N3CCOCC3)cc2)o1` registered an RP-LC retention time of 851 s.

`COC(=O)c1ncn2c1C(=O)N(Cc1ccccc1)C(C)(C(=O)NCc1ccc(C)cc1)C2` (centres undefined) yielded an RP-LC retention time of 734 s.

With `Cc1cc(S(=O)(=O)N2[C@H]3CC[C@@H]2c2cnc(-c4ccccc4)nc2C3)ccc1F`, the RP-LC retention time came to 1090 s.

As for `CN(C)C[C@@H]1CN(Cc2ccccc2)C[C@H]1NS(=O)(=O)c1cccc(F)c1`, the RP-LC retention time was determined as 586 s.

`CC(=O)N1CCC(C(=O)Nc2cccc(OCc3nnc(-c4ccccc4)o3)c2)CC1` gave an RP-LC retention time of 716 s.

The compound `COC(=O)C1=CN(c2ccccc2C)c2cc(F)ccc2S1(=O)=O` came in with an RP-LC retention time of 832 s.

In the case of `O=C(c1ccc(Cl)s1)N1CCN(c2ncnc3c2CCC3)CC1`, the RP-LC retention time was 638 s.

On to `Clc1ccccc1-c1noc(-c2nc(-c3ccncc3)no2)n1`, for which the RP-LC retention time was 1130 s.

`Nc1nc(N2CCOCC2)ncc1C(=O)Nc1ccccc1`: the RP-LC retention time worked out at 611 s.

With `CC(C)NC(=O)C1CCCN(C(=O)Nc2ccc(NC(=O)Nc3ccc(F)cc3)cc2)C1` (centres undefined), the RP-LC retention time was determined as 714 s.

`CCN1C(=O)c2cc(S(=O)(=O)Nc3ccc(C)cc3C)ccc2Oc2cccnc21`: the RP-LC retention time amounted to 1080 s.

For `CCCN(C)c1nccn2c(=O)n(CC(=O)Nc3cccc(Cl)c3)nc12`, the RP-LC retention time was 724 s.

`CN(Cc1cccs1)C(=O)Nc1ccccc1` gave an RP-LC retention time of 833 s.

As to `COc1ccc(CC(=O)N2CCN(c3nc4ccncc4n(C)c3=O)CC2)c(Cl)c1`, the RP-LC retention time worked out at 645 s.

Take `O=C(Nc1ccc(OC(F)(F)F)cc1)C1CCCN(c2ccc(=O)n(-c3cccc(Cl)c3)n2)C1` (centres undefined): the RP-LC retention time was determined as 1090 s.

For the compound `CCc1nc(-c2csc(S(=O)(=O)N3CCC(C(=O)Nc4ccc(F)cc4)CC3)c2)no1`, the RP-LC retention time is 962 s.

Take `NC(=O)C1CCN(c2ccc3cccc(OCC(=O)NCc4ccco4)c3n2)CC1`: the RP-LC retention time was 552 s.

The compound `CN1C(=O)C(c2c(-c3ccc4ccccc4c3)[nH]c3[nH]c(=O)[nH]c(=O)c23)c2ccccc21` (centres undefined) gave an RP-LC retention time of 721 s.

For `CCN(CC)S(=O)(=O)c1ccc(NC(=O)N2CCC(C(=O)Nc3ccc(Cl)cc3)CC2)s1`, the RP-LC retention time was found to be 931 s.

`Cc1cc2[nH]c(C(=O)Nc3ccccc3Br)c(CN(C)C)c2s1` registered an RP-LC retention time of 659 s.

The compound `Cc1ccc(-c2nc(-c3ccc4nncn4c3)no2)cc1` gave an RP-LC retention time of 870 s.

On to `CCOc1ccc(-n2ccn3cc(-c4ccc(F)cc4)nc3c2=O)cc1`, for which the RP-LC retention time was 860 s.

Compound `Cc1cccc(NC(=O)C2CCCN(c3ncnc4c3oc3ccccc34)C2)c1` (centres undefined) yielded an RP-LC retention time of 845 s.

As for `O=C(NCc1ccccc1)C1c2ccccc2CC(=O)N1Cc1ccccc1` (centres undefined), the RP-LC retention time worked out at 850 s.

In turn, `CCCCNc1nc(-c2ccc(Cl)cc2)nc2ccccc12` had an RP-LC retention time of 873 s.

Regarding `CCCNC(=O)C1CCN(c2nc3ccc(-c4cncnc4)nc3s2)CC1`, the RP-LC retention time worked out at 719 s.

`O=C(Nc1nc(-c2ccc3ccccc3c2)cs1)c1ccc2c(c1)OCO2` returned an RP-LC retention time of 1160 s.

`CCOc1ncccc1CNC(=O)c1sccc1C` registered an RP-LC retention time of 822 s.

These data come from the METLIN SMRT retention time set (Domingo-Almenara et al. 2019).
